Assay results reported in ChEMBL document CHEMBL5257042, “Highly Oxidized Ecdysteroids from a Commercial Cyanotis arachnoidea Root Extract as Potent Blood-Brain Barrier Protective Agents” (J Nat Prod, 2023).
Calls of active or inactive are those of the source. No cut-off for these calls is given here.

Experiments:
[1] = Cytotoxicity against human CMEC/D3 cells assessed as increase in cell impedance at 1 uM incubated for 4 hrs by RTCA assay; format: toxicity, cell-based; conditions: hcmec/d3, 4 h
[2] = Cytotoxicity against human CMEC/D3 cells assessed as decrease in cell impedance at 10 uM incubated for 4 hrs by RTCA assay; format: toxicity, cell-based; conditions: hcmec/d3, 4 h
[3] = system: hCMEC/D3; assay: Cytoprotective activity against tBHP-induced oxidative damage in human CMEC/D3 cells at 1 uM incubated for 4 hrs by RTCA assay; format: functional, cell-based
[4] = system: hCMEC/D3; assay: Cytoprotective activity against TNFalpha-induced cellular damage in human CMEC/D3 cells assessed as increase in cell impedance at 1 uM incubated for 4 hrs by RTCA assay; format: functional, cell-based
[5] = system: hCMEC/D3; assay: Cytoprotective activity against IL-1beta-induced cellular damage in human CMEC/D3 cells assessed as increase in cell impedance at 1 uM incubated for 4 hrs by RTCA assay; format: functional, cell-based

Compound	Activity [1]	Activity [2]	Activity [3]	Activity [4]	Activity [5]
CC(C)(O)CC[C@H]1O[C@H]2C(=O)[C@@H]3C4=C(CC[C@]3(C)[C@H]2[C@@]1(C)O)[C@@]1(C)C[C@H](O)[C@H](O)CC1=C(O)C4=O	Non-Toxic	Toxic	Active	Active	Active
CC(C)(O)CC[C@@H](O)[C@](C)(O)[C@H]1C[C@H](O)C2=C3C(=O)C(O)=C4C[C@@H](O)[C@@H](O)C[C@]4(C)[C@@]3(O)CC[C@@]21C	Non-Toxic	Non-Toxic	Active	Active	Active
CC(C)(O)CCC(=O)[C@](C)(O)[C@H]1CC(=O)C2=C3C(=O)C(O)=C4C[C@@H](O)[C@@H](O)C[C@]4(C)C3=CC[C@@]21C	Non-Toxic	Non-Toxic	Active	Active	Active
